System: LNCaP cells
Test: Affymetrix cDNA microarray for LiCl-induced changes
Type: cell-based, human
Procedure: Genechip® arrays (Affymetrix Inc, Santa Clara, Calif.) used herein contain almost 45,000 probe sets representing more than 39,000 transcripts derived from approximately 33,000 well substantial human genes. The in vitro-transcription labeling is conducted using the EnzoBio array high yield RNA transcript labeling kit (Affymetrix). Ten micrograms of total RNAs were used for the first strand cDNA synthesis using the SuperscriptChoice system (Invitrogen).
Genechips were hybridized for 16 hours at 45° C. and 60 rpm in Genechip hybridization oven Model 640. After washing the Genechip, the signal intensity was detected using the Agilent Gene Array scanner.
This example investigated the genes that are altered by GSK-3β inhibition. This approach started with a genome-wide screening of gene expression with cDNA Microarray to identify the altered genes, which was verified by RT-PCR and Western blot at mRNA and protein levels, respectively. After sequestered in serum-free media for 24 hours, LNCaP cells were left untreated or treated with LiCl in a full culture media for 18 hours. The total cellular RNAs were extracted from the cells for cDNA Microarray analysis.

[1] = LiCl in full culture media 18 hours, down-regulation
[2] = LiCl in full culture media 18 hours, up-regulation

[Cl-].[Li+] [LiCl, Lithium chloride]
fold change, Cyclin A2 (203418_at) [1]: −4.19
fold change, Cyclin E2 (205034_at) [1]: −2.99
fold change, Cyclin E2 (211814_s_at) [1]: −2.18
fold change, cdc6 (203967_at) [1]: −3.47
fold change, cdc6 (203968_s_at) [1]: −3
fold change, cdc25c (205167_s_at) [1]: −2.74
fold change, cdc25c (217010_s_at) [1]: −5.99
fold change, cyclin B2 (202705_at) [1]: −1.4
fold change, p27KIP1 (209112_at) [1]: −1.17
fold change, cyclin D1 (203665_at) [2]: 2.07
fold change, cyclin D1 (208712_at) [2]: 1.84
fold change, cyclin G2 (202770_s_at) [2]: 1.87
fold change, p21CIP1 (202284_s_at) [2]: 5.7
fold change, p57KIP2 (213348_at) [2]: 1.79
microarray expression of cyclin D1 (LiCl treatment): slight increase
microarray expression of other cell cycle related proteins (cyclin B, cdc2, p27KIP1, p57KIP2) (LiCl treatment): No significant changes
treatment signal, p57KIP2 (213348_at) (LiCl-treated, control signal 137.6): 246.4
treatment signal, cdc25c (217010_s_at) (LiCl-treated, control signal 207.8): 34.7
treatment signal, cyclin D1 (203665_at) (LiCl-treated, control signal 294.7): 609.3
treatment signal, cyclin G2 (202770_s_at) (LiCl-treated, control signal 325.3): 606.9
treatment signal, p21CIP1 (202284_s_at) (LiCl-treated, control signal 430.9): 2457.2
treatment signal, cdc25c (205167_s_at) (LiCl-treated, control signal 442.3): 161.2
treatment signal, Cyclin E2 (211814_s_at) (LiCl-treated, control signal 852.7): 391.2
treatment signal, cyclin D1 (208712_at) (LiCl-treated, control signal 853.9): 1568.2
treatment signal, cdc6 (203968_s_at) (LiCl-treated, control signal 1132.5): 377.9
treatment signal, cdc6 (203967_at) (LiCl-treated, control signal 1136): 327
treatment signal, Cyclin E2 (205034_at) (LiCl-treated, control signal 1268.1): 423.8
treatment signal, p27KIP1 (209112_at) (LiCl-treated, control signal 1365.8): 1171.7
treatment signal, Cyclin A2 (203418_at) (LiCl-treated, control signal 1529.8): 364.7
treatment signal, cyclin B2 (202705_at) (LiCl-treated, control signal 2379.1): 1693.9
